Tests used:
Assay in all cases: relative viability (nuclei count vs DMSO), 5 days (fraction); higher = more cells survive
MLN4924 + OSI-027 = compound: NS(=O)(=O)OC[C@@H]1C[C@@H](n2ccc3c(N[C@H]4CCc5ccccc54)ncnc32)C[C@@H]1O [MLN4924] + COc1cccc2cc(-c3nc([C@H]4CC[C@H](C(=O)O)CC4)n4ncnc(N)c34)[nH]c12 [OSI-027] (partner 0.5 µM)
Outline: (§1)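 Nuclei were stained with Hoechst during a one-step fixation (final 0.05% Triton X-100, 1% formaldehyde, 1 ug/ml Hoechst) carried out 5 days after dosing, then counted on 4× images. The cells, lung cancer lines in 1536-well plates, had been dosed by pin tool the day after seeding with one drug alone or a fixed anchor-drug dose plus five library-drug doses (not always all listed) in √10 steps. Relative viability is the nuclei count in treated wells divided by that in vehicle wells, and each value is the median of duplicate plates.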

GSK126 + Foretinib = compound: CC[C@H](C)N1C=C(C2=C(C=C(C=C21)C3=CN=C(C=C3)N4CCNCC4)C(=O)NCC5=C(C=C(NC5=O)C)C)C [GSK126] + COc1cc2c(Oc3ccc(NC(=O)C4(C(=O)Nc5ccc(F)cc5)CC4)cc3F)ccnc2cc1OCCCN1CCOCC1 [Foretinib] (partner 0.25 µM)
Outline: as §1

Carboplatin + Luminespib = compound: C1CC(C1)(C(=O)O)C(=O)O.[NH2-].[NH2-].[Pt+2] [Carboplatin] + CCNC(=O)c1noc(-c2cc(C(C)C)c(O)cc2O)c1-c1ccc(CN2CCOCC2)cc1 [Luminespib] (partner 0.01 µM)
Outline: as §1

Carboplatin + Pemetrexed = compound: C1CC(C1)(C(=O)O)C(=O)O.[NH2-].[NH2-].[Pt+2] [Carboplatin] + Nc1nc2[nH]cc(CCc3ccc(C(=O)N[C@@H](CCC(=O)O)C(=O)O)cc3)c2c(=O)[nH]1 [Pemetrexed] (partner 0.2 µM)
Outline: as §1

| Cell Line | relative viability (MLN4924 + OSI-027; first compound 0.04 µM) | relative viability (MLN4924 + OSI-027; first compound 0.1265 µM) | relative viability (MLN4924 + OSI-027; first compound 0.4 µM) | relative viability (MLN4924 + OSI-027; first compound 1.265 µM) | relative viability (MLN4924 + OSI-027; first compound 4 µM) | relative viability (GSK126 + Foretinib; first compound 0.08 µM) | relative viability (GSK126 + Foretinib; first compound 0.253 µM) | relative viability (GSK126 + Foretinib; first compound 0.8 µM) | relative viability (GSK126 + Foretinib; first compound 2.53 µM) | relative viability (GSK126 + Foretinib; first compound 8 µM) | relative viability (Carboplatin + Luminespib; first compound 0.08 µM) | relative viability (Carboplatin + Luminespib; first compound 0.253 µM) | relative viability (Carboplatin + Luminespib; first compound 0.8 µM) | relative viability (Carboplatin + Luminespib; first compound 2.53 µM) | relative viability (Carboplatin + Luminespib; first compound 8 µM) | relative viability (Carboplatin + Pemetrexed; first compound 0.08 µM) | relative viability (Carboplatin + Pemetrexed; first compound 0.253 µM) | relative viability (Carboplatin + Pemetrexed; first compound 0.8 µM) | relative viability (Carboplatin + Pemetrexed; first compound 2.53 µM) | relative viability (Carboplatin + Pemetrexed; first compound 8 µM) |
| --- | --- | --- | --- | --- | --- | --- | --- | --- | --- | --- | --- | --- | --- | --- | --- | --- | --- | --- | --- | --- |
| NCI-H1993 | 0.549 | 0.523 | 0.532 | 0.488 | 0.52 | 0.704 | 0.812 | 0.726 | 0.845 | 0.859 | 1.13 | 0.812 | 0.818 | 0.884 | 0.698 | 0.684 | 0.568 | 0.513 | 0.67 | 0.608 |
| SW 1573 | 0.684 | 0.666 | 0.191 | 0.0527 | 0.0802 | 1.09 | 1.04 | 0.929 | 1.05 | 0.949 | 0.298 | 0.293 | 0.344 | 0.579 | 0.222 | 0.92 | 0.924 | 1.18 | 1.01 | 0.569 |
| NCI-H520 | 0.294 | 0.295 | 0.363 | 0.202 | 0.191 | 1.04 | 0.693 | 0.719 | 0.78 | 0.909 | 0.256 | 0.209 | 0.183 | 0.21 | 0.211 | 0.701 | 0.791 | 0.686 | 0.617 | 0.493 |
| LCLC-97TM1 | 0.601 | 0.247 | 0.239 | 0.131 | 0.116 | 1.03 | 0.942 | 0.954 | 1.06 | 0.994 | 0.726 | 0.667 | 0.65 | 0.732 | 0.722 | 0.171 | 0.164 | 0.155 | 0.161 | 0.175 |
| HCC-827 | 0.794 | 0.558 | 0.686 | 0.151 | 0.159 | 1.02 | 1.02 | 1.01 | 1.03 | 1.09 | 0.653 | 0.675 | 0.441 | 0.452 | 0.3 | 0.253 | 0.244 | 0.259 | 0.234 | 0.245 |
| NCI-H1975 | 0.704 | 0.934 | 1 | 0.618 | 0.261 | 0.952 | 0.828 | 0.886 | 0.873 | 0.932 | 0.227 | 0.227 | 0.17 | 0.18 | 0.113 | 0.297 | 0.266 | 0.277 | 0.298 | 0.268 |
